According to ChEMBL document CHEMBL4382226, “Design, synthesis and evaluation of hybrid of tetrahydrocarbazole with 2,4-diaminopyrimidine scaffold as antibacterial agents” (Eur J Med Chem, 2019):
Values after ≈ are worked out from the molar mass of the structure shown.

How the values were obtained:
Escherichia coli = test: Antibacterial activity against Escherichia coli AB1157 measured after 16 hrs; assay type: functional; settings: AB1157, 16 h
Staphylococcus aureus [1] = test: Antibacterial activity against Staphylococcus aureus Newman measured after 16 hrs; assay type: functional
Staphylococcus aureus [2] = test: Antibacterial activity against linezolid-resistant Staphylococcus aureus NRS-271 measured after 16 hrs; assay type: functional; settings: NRS-271, 16 h
Staphylococcus aureus [3] = test: Antibacterial activity against oxacillin/tetracycline-resistant Staphylococcus aureus NRS-100 measured after 16 hrs; assay type: functional; settings: NRS-100, 16 h
Staphylococcus aureus [4] = test: Antibacterial activity against aminoglycosides/tetracycline-resistant Staphylococcus aureus NRS-1 measured after 16 hrs; assay type: functional; settings: NRS-1, 16 h
Staphylococcus aureus [5] = test: Antibacterial activity against gentamicin-resistant Staphylococcus aureus NRS-108 measured after 16 hrs; assay type: functional; settings: NRS-108, 16 h
Staphylococcus aureus [6] = test: Antibacterial activity against erythromycin-resistant Staphylococcus aureus NRS-70 measured after 16 hrs; assay type: functional; settings: NRS-70, 16 h
[7] = AUC (0 to infinity) in Sprague-Dawley rat at 10 mg/kg, po administered as single dose via gavage; assay type: ADME, organism-based; set-up: dose 10 mg/kg, route oral, time infinity; settings: in vivo
[8] = Half life in Sprague-Dawley rat at 10 mg/kg, po administered as single dose via gavage; assay type: ADME, organism-based; settings: in vivo
[9] = Apparent volume of distribution in Sprague-Dawley rat at 10 mg/kg, po administered as single dose via gavage; assay type: ADME, organism-based; settings: in vivo
[10] = Tmax in Sprague-Dawley rat at 10 mg/kg, po administered as single dose via gavage; assay type: ADME, organism-based; settings: in vivo
[11] = AUC (0 to t) in Sprague-Dawley rat at 10 mg/kg, po administered as single dose via gavage; assay type: ADME, organism-based; settings: in vivo
[12] = Clearance in Sprague-Dawley rat at 10 mg/kg, po administered as single dose via gavage; assay type: ADME, organism-based; settings: in vivo
[13] = Mean residence time in Sprague-Dawley rat at 10 mg/kg, po administered as single dose via gavage; assay type: ADME, organism-based; settings: in vivo
[14] = Cmax in Sprague-Dawley rat at 10 mg/kg, po administered as single dose via gavage; assay type: ADME, organism-based; set-up: dose 10 mg/kg, route oral; settings: in vivo

Structure (SMILES)	MIC (Escherichia coli)	MIC (Staphylococcus aureus [1])	MIC (Staphylococcus aureus [2])	MIC (Staphylococcus aureus [3])	MIC (Staphylococcus aureus [4])	MIC (Staphylococcus aureus [5])	MIC (Staphylococcus aureus [6])	further results
CC(C)CNc1nccc(NCCNC2CCCc3c2[nH]c2ccc(Br)cc32)n1 (stereo not drawn)	1.56 to 3.13 µg/mL (≈ 3.41 to 6.84 µM)	1.56 to 3.13 µg/mL (≈ 3.41 to 6.84 µM)	–	–	–	–	–	–
CC(C)CNc1nccc(NCCCNC2CCCc3c2[nH]c2ccc(C(=O)O)cc32)n1 (stereo not drawn)	> 50 µg/mL	> 50 µg/mL	–	–	–	–	–	–
CC(C)CNc1nccc(NCCCNC2CCCc3c2[nH]c2ccc(OC(F)(F)F)cc32)n1 (stereo not drawn)	1.56 to 3.13 µg/mL (≈ 3.27 to 6.57 µM)	1.56 to 3.13 µg/mL (≈ 3.27 to 6.57 µM)	1.56 to 3.13 µg/mL (≈ 3.27 to 6.57 µM)	1.56 to 3.13 µg/mL (≈ 3.27 to 6.57 µM)	1.56 to 3.13 µg/mL (≈ 3.27 to 6.57 µM)	1.56 to 3.13 µg/mL (≈ 3.27 to 6.57 µM)	1.56 to 3.13 µg/mL (≈ 3.27 to 6.57 µM)	–
CC(C)CNc1nccc(NCCCNC2CCCc3c2[nH]c2c(Br)cccc32)n1 (stereo not drawn)	6.25 to 12.5 µg/mL (≈ 13.3 to 26.5 µM)	3.13 to 6.25 µg/mL (≈ 6.64 to 13.3 µM)	6.25 to 12.5 µg/mL (≈ 13.3 to 26.5 µM)	6.25 to 12.5 µg/mL (≈ 13.3 to 26.5 µM)	3.13 to 6.25 µg/mL (≈ 6.64 to 13.3 µM)	6.25 to 12.5 µg/mL (≈ 13.3 to 26.5 µM)	6.25 to 12.5 µg/mL (≈ 13.3 to 26.5 µM)	–
CC(C)CNc1nccc(NCCCNC2CCCc3c2[nH]c2ccc(Cl)cc32)n1 (stereo not drawn)	1.56 to 3.13 µg/mL (≈ 3.65 to 7.33 µM)	1.56 to 3.13 µg/mL (≈ 3.65 to 7.33 µM)	1.56 to 3.13 µg/mL (≈ 3.65 to 7.33 µM)	3.13 to 6.25 µg/mL (≈ 7.33 to 14.6 µM)	1.56 to 3.13 µg/mL (≈ 3.65 to 7.33 µM)	1.56 to 3.13 µg/mL (≈ 3.65 to 7.33 µM)	3.13 to 6.25 µg/mL (≈ 7.33 to 14.6 µM)	–
CC(C)CNc1nccc(NCCCNC2CCCc3c2[nH]c2ccc(C(F)(F)F)cc32)n1 (stereo not drawn)	1.56 to 3.13 µg/mL (≈ 3.39 to 6.8 µM)	1.56 to 3.13 µg/mL (≈ 3.39 to 6.8 µM)	1.56 to 3.13 µg/mL (≈ 3.39 to 6.8 µM)	1.56 to 3.13 µg/mL (≈ 3.39 to 6.8 µM)	1.56 to 3.13 µg/mL (≈ 3.39 to 6.8 µM)	1.56 to 3.13 µg/mL (≈ 3.39 to 6.8 µM)	1.56 to 3.13 µg/mL (≈ 3.39 to 6.8 µM)	–
COC(=O)c1ccc2[nH]c3c(c2c1)CCCC3NCCCNc1ccnc(NCC(C)C)n1 (stereo not drawn)	> 50 µg/mL	25 to 50 µg/mL (≈ 55.5 to 111 µM)	–	–	–	–	–	–
Cc1ccc2[nH]c3c(c2c1)CCCC3NCCc1ccccc1 (stereo not drawn)	–	15 to 30.2 µg/mL (≈ 49.3 to 99.2 µM)	–	–	–	–	–	–
COc1ccc2[nH]c3c(c2c1)CCCC3NCCCNc1ccnc(NCC(C)C)n1 (stereo not drawn)	> 50 µg/mL	25 to 50 µg/mL (≈ 59.2 to 118 µM)	–	–	–	–	–	–
COc1cccc2c3c([nH]c12)C(NCCCNc1ccnc(NCC(C)C)n1)CCC3 (stereo not drawn)	12.5 to 25 µg/mL (≈ 29.6 to 59.2 µM)	12.5 to 25 µg/mL (≈ 29.6 to 59.2 µM)	–	–	–	–	–	–
CC(C)CNc1nccc(NCCCCNC2CCCc3c2[nH]c2ccc(OC(F)(F)F)cc32)n1 (stereo not drawn)	3.13 to 6.25 µg/mL (≈ 6.38 to 12.7 µM)	1.56 to 3.13 µg/mL (≈ 3.18 to 6.38 µM)	–	–	–	–	–	–
CC(C)CNc1nccc(NC2CCCc3c2[nH]c2ccc(OC(F)(F)F)cc32)n1 (stereo not drawn)	–	0.78 to 1.56 µg/mL (≈ 1.86 to 3.72 µM)	–	–	–	–	–	–
CC(C)CNc1nccc(NCCCNC2CCCc3c2[nH]c2ccccc32)n1 (stereo not drawn)	12.5 to 25 µg/mL (≈ 31.8 to 63.7 µM)	12.5 to 25 µg/mL (≈ 31.8 to 63.7 µM)	–	–	–	–	–	–
CC(C)CNc1nccc(NCCCNC2CCCc3c2[nH]c2ccc(Br)cc32)n1 (stereo not drawn)	0.39 to 0.78 µg/mL (≈ 0.827 to 1.65 µM)	0.39 to 0.78 µg/mL (≈ 0.827 to 1.65 µM)	0.78 to 1.56 µg/mL (≈ 1.65 to 3.31 µM)	0.78 to 1.56 µg/mL (≈ 1.65 to 3.31 µM)	0.39 to 0.78 µg/mL (≈ 0.827 to 1.65 µM)	0.78 to 1.56 µg/mL (≈ 1.65 to 3.31 µM)	0.78 to 1.56 µg/mL (≈ 1.65 to 3.31 µM)	AUC(0-inf) [7]: 1560 ng·h/mL; half-life [8]: 10.8 h; Vd/F [9]: 103 L/kg; Tmax [10]: 3.6 h; AUC(0-t) [11]: 1200 ng·h/mL; CL/F [12]: 110 mL/min/kg; MRT [13]: 16.2 h; Cmax [14]: 86.3 ng/mL
Cc1ccc2[nH]c3c(c2c1)CCCC3NCCCc1ccccc1 (stereo not drawn)	–	4 to 8 µg/mL (≈ 12.6 to 25.1 µM)	–	–	–	–	–	–
CC(C)CNc1nccc(NCCCNC2CCCc3c2[nH]c2ccc(F)cc32)n1 (stereo not drawn)	12.5 to 25 µg/mL (≈ 30.4 to 60.9 µM)	12.5 to 25 µg/mL (≈ 30.4 to 60.9 µM)	–	–	–	–	–	–
CC(C)CNc1nccc(NCCCCNC2CCCc3c2[nH]c2ccc(Br)cc32)n1 (stereo not drawn)	1.56 to 3.13 µg/mL (≈ 3.21 to 6.45 µM)	0.78 to 1.56 µg/mL (≈ 1.61 to 3.21 µM)	–	–	–	–	–	–
CC(C)CNc1nccc(NCCNC2CCCc3c2[nH]c2ccc(OC(F)(F)F)cc32)n1 (stereo not drawn)	3.13 to 6.25 µg/mL (≈ 6.77 to 13.5 µM)	3.13 to 6.25 µg/mL (≈ 6.77 to 13.5 µM)	–	–	–	–	–	–
Cc1ccc2[nH]c3c(c2c1)CCCC3NCCCCc1ccccc1 (stereo not drawn)	–	5 to 6.6 µg/mL (≈ 15 to 19.9 µM)	4.2 to 5.8 µg/mL (≈ 12.6 to 17.4 µM)	2.9 to 4.2 µg/mL (≈ 8.72 to 12.6 µM)	2.9 to 4.2 µg/mL (≈ 8.72 to 12.6 µM)	4.2 to 5.8 µg/mL (≈ 12.6 to 17.4 µM)	2.9 to 4.2 µg/mL (≈ 8.72 to 12.6 µM)	–
Cc1ccc2[nH]c3c(c2c1)CCCC3NCc1ccccc1 (stereo not drawn)	–	14.5 to 20.9 µg/mL (≈ 49.9 to 72 µM)	–	–	–	–	–	–
NC[C@H]1O[C@H](O[C@H]2[C@H](O)[C@@H](O[C@H]3O[C@H](CO)[C@@H](O)[C@H](N)[C@H]3O)[C@H](N)C[C@@H]2N)[C@H](O)[C@@H](O)[C@@H]1O [KANAMYCIN]	> 50 µg/mL	–	–	–	50 to 75 µg/mL (≈ 103 to 155 µM)	50 to 75 µg/mL (≈ 103 to 155 µM)	50 to 75 µg/mL (≈ 103 to 155 µM)	–
CN(C)[C@@H]1C(O)=C(C(N)=O)C(=O)[C@@]2(O)C(O)=C3C(=O)c4c(O)cccc4[C@@](C)(O)[C@H]3C[C@@H]12 [TETRACYCLINE]	–	–	< 1.56 µg/mL	< 1.56 µg/mL	> 12.5 µg/mL	< 1.56 µg/mL	< 1.56 µg/mL	–
CN[C@H](CC(C)C)C(=O)N[C@H]1C(=O)N[C@@H](CC(N)=O)C(=O)N[C@H]2C(=O)N[C@H]3C(=O)N[C@H](C(=O)N[C@H](C(=O)O)c4cc(O)cc(O)c4-c4cc3ccc4O)[C@H](O)c3ccc(c(Cl)c3)Oc3cc2cc(c3O[C@@H]2O[C@H](CO)[C@@H](O)[C@H](O)[C@H]2O[C@H]2C[C@](C)(N)[C@H](O)[C@H](C)O2)Oc2ccc(cc2Cl)[C@H]1O [VANCOMYCIN]	6.25 to 12.5 µg/mL (≈ 4.31 to 8.63 µM)	–	–	–	–	–	–	–
